# Assay results reported in patent US20110263454A1, “Methods of Identifying Functional Characteristics of Promoters, Transcription Modifying Proteins and Transcription Modulating Agents” (Salk Institute for Biological Studies, priority 2008, published 2011).
# Columns and labels:
# mPOMC promoter = assay: NHR-promoter luciferase screen, mPOMC promoter; type: cell-based, mouse; settings: for Results of assays of transcription factor (+/- ligand) with mPOMC: Table 6d, luciferase activity relative to control (control = 1.00); for Luc. act., normalized to lacZ / Normalized Luc. act., normalized to control: mPOMC promoter, HR component with or without ligand; for Normalized Luc. act., normalized to control: relative to control
# Protocol: (§1) The use, feasibility, and reproducibility of the functional NHR-promoter screen in a 48-well format have been tested validated. Briefly, there were co-expressed 50 ng of each NHR/NHR homodimer or NHR/RXR heterodimer with 100 ng promoter/luciferase construct and 50 ng of LacZ (as a control for transfection efficiency) in CV-1 cells using Fugene HD (Roche) as a transfection reagent (alternatively or additionally, a CMV-YFP construct can be used as a transfection control). Each of the nuclear hormone receptors that were used in these experiments was cloned into a pcDNA3.1 vector and comprised a C-terminally linked V5H6 tag. Twenty-four hours after transfection, appropriate ligands were added, where applicable, (see Table 5 for various ligands and concentrations and after 48 hrs, samples were assayed for luciferase and LacZ activity. To measure for luciferase activity 15 ul of sample was added to 30 ul of luciferase buffer (20 mM tricine, 1.07 mM MgCarbonate, 2.67 mM MgSulfate, 0.1 mM Naz-EDTA, 5 mM DTT, 5 mM ATP, 0.15 mg/ml CoA, 0.5 mM Luciferin), mixed briefly, and run in a Perkin Elmer Victor 5 luminometer. Thus, the functional NHR-promoter screen was used to observe the transcriptional activity of 29 promoters from various physiological pathways including inflammation, lipid and sugar metabolism, cholesterol transport, xenobiotic metabolism, and circadian rhythm.
# (§2) The promoters that facilitate transcription of the indicated gene products that were tested using the protocols described herein are listed in the first row of the table. The nuclear hormone receptors and, where applicable, ligands that were assayed for their transcriptional effects on the promoters are listed in the first column of the table. The data represent the luciferase activity of each sample normalized to both the lacZ activity of that sample and to a control, e.g., no NHR or ligand, as customary in the art. As described previously, these normalizations allow the transcriptional activity of each reporter cell to be compared to other samples.
# (§3) Tables 7-40 show the transcriptional effects of the hormone receptors, and, where applicable, ligands (orphan receptors are screened without ligand), on each individual promoter. […] The control data of each table are shown in their last rows.
# mUCP3 promoter = assay: NHR-promoter luciferase screen, mUCP3 promoter; type: cell-based, mouse; settings: for Normalized Luc. act., normalized to control / Luc. act., normalized to lacZ: mUCP3 promoter reporter; for Normalized Luc. act., normalized to control: HR without or with its ligand, relative to control; for Luc. act., normalized to lacZ: hormone receptor (HR) without or with its ligand; for mUCP3 promoter reporter activity: transcription factor +/- ligand, control = 1.00
# Protocol: as §1, §2, §3
# hIRF7 promoter = assay: NHR-promoter luciferase screen, hIRF7 promoter; type: cell-based, human; settings: for Normalized Luc. act., normalized to control / Luc. act., normalized to lacZ: IRF7 promoter reporter; for Normalized Luc. act., normalized to control: HR without or with its ligand, relative to control; for Luc. act., normalized to lacZ: hormone receptor (HR) without or with its ligand; for hIRF7 promoter reporter activity: transcription factor +/- ligand, control = 1.00
# Protocol: as §1, §2, §3
# hPPARg1 promoter = assay: NHR-promoter luciferase screen, hPPARg1 promoter; type: cell-based, human; settings: for Luc. act., normalized to lacZ / Normalized Luc. act., normalized to control: PPARG1 promoter, hormone receptor with or without its ligand; for Normalized Luc. act., normalized to control: relative to control; for Results of assays of transcription factor (+/- ligand) with hPPARg1: Table 6d, luciferase activity relative to control (control = 1.00)
# Protocol: as §1, §2, §3
# mLeptin promoter = assay: NHR-promoter luciferase screen, mLeptin promoter; type: cell-based, mouse; settings: for Luc. act., normalized to lacZ / Normalized Luc. act., normalized to control: Table 7, mLeptin; for Results of assays of transcription factor (+/- ligand) with mLeptin: Table 6d, luciferase activity relative to control (control = 1.00)
# Protocol: as §1, §2, §3
# mGhrelin promoter = assay: NHR-promoter luciferase screen, mGhrelin promoter; type: cell-based, mouse; settings: for Luc. act., normalized to lacZ / Normalized Luc. act., normalized to control: Table 8, mGhrelin; for Results of assays of transcription factor (+/- ligand) with mGhrelin: Table 6d, luciferase activity relative to control (control = 1.00)
# Protocol: as §1, §2, §3
Molecule,Results of assays of transcription factor (+/- ligand) with mPOMC (mPOMC promoter),"Luc. act., normalized to lacZ (mPOMC promoter)","Normalized Luc. act., normalized to control (mPOMC promoter)","Normalized Luc. act., normalized to control (mUCP3 promoter)","Luc. act., normalized to lacZ (mUCP3 promoter)",mUCP3 promoter reporter activity (mUCP3 promoter),"Normalized Luc. act., normalized to control (hIRF7 promoter)","Luc. act., normalized to lacZ (hIRF7 promoter)",hIRF7 promoter reporter activity (hIRF7 promoter),"Luc. act., normalized to lacZ (hPPARg1 promoter)","Normalized Luc. act., normalized to control (hPPARg1 promoter)",Results of assays of transcription factor (+/- ligand) with hPPARg1 (hPPARg1 promoter),"Luc. act., normalized to lacZ (mLeptin promoter)","Normalized Luc. act., normalized to control (mLeptin promoter)",Results of assays of transcription factor (+/- ligand) with mLeptin (mLeptin promoter),"Luc. act., normalized to lacZ (mGhrelin promoter)","Normalized Luc. act., normalized to control (mGhrelin promoter)",Results of assays of transcription factor (+/- ligand) with mGhrelin (mGhrelin promoter)
"RXRa: Retinoic X Receptor α (NR2B1), cDNA driver",0.99,68.0,1.0,1.3,0.9,1.27,1.0,27.5,1.04,45.6,0.7,0.66,2.3,0.8,0.77,57.4,1.1,1.10
"SF-1: Steroidogenic Factor 1 (NR5A1, SF1), cDNA driver",8.37,577.5,8.4,5.5,3.7,5.46,2.5,65.5,2.49,124.1,1.8,1.80,4.7,1.6,1.60,273.2,5.2,5.23
"TLX: Tailless (homolog of drosophila) (NR2E1), cDNA driver",0.74,51.1,0.7,1.1,0.8,1.11,2.1,55.0,2.09,107.9,1.6,1.57,2.6,0.9,0.89,86.6,1.7,1.66
"VDR: Vitamin D Receptor (NR1I1), cDNA driver",1.16,79.8,1.2,1.5,1.0,1.49,1.1,30.2,1.15,38.1,0.6,0.55,2.6,0.9,0.90,76.6,1.5,1.47
"HNF4a: Hepatocyte Nuclear Factor α (NR2A1), cDNA driver (protein, UniProt P41235 1-474, looked up) Hepatocyte nuclear factor …: MRLSKTLVDMDMADYSAALDPAYTTLEFENVQVLTMGNDTSPSEGTNLNAPNSLGVSALCAICGDRATGKHYGASSCDGCKGFFRRSVRKNHMYSCRFSRQCVVDKDKRNQCRYCRLKKCFRAGMKKEAVQNERDRISTRRSSYEDSSLPSINALLQAEVLSRQITSPVSGINGDIRAKKIASIADVCESMKEQLLVLVEWAKYIPAFCELPLDDQVALLRAHAGEHLLLGATKRSMVFKDVLLLGNDYIVPRHCPELAEMSRVSIRILDELVLPFQELQIDDNEYAYLKAIIFFDPDAKGLSDPGKIKRLRSQVQVSLEDYINDRQYDSRGRFGELLLLLPTLQSITWQMIEQIQFIKLFGMAKIDNLLQEMLLGGSPSDAPHAHHPLHPHLMQEHMGTNVIVANTMPTHLSNGQMCEWPRPRGQAATPETPQPSPPGGSGSEPYKLLPGAVATIVKPLSAIPQPTITKQEVI",0.90,62.0,0.9,1.1,0.7,1.06,1.4,36.0,1.36,34.8,0.5,0.51,2.5,0.8,0.84,42.6,0.8,0.82
"LXRb: Liver X Receptor β (NR1H2), cDNA driver (protein, UniProt P55055 1-460, looked up) Oxysterols receptor LXR-beta: MSSPTTSSLDTPLPGNGPPQPGAPSSSPTVKEEGPEPWPGGPDPDVPGTDEASSACSTDWVIPDPEEEPERKRKKGPAPKMLGHELCRVCGDKASGFHYNVLSCEGCKGFFRRSVVRGGARRYACRGGGTCQMDAFMRRKCQQCRLRKCKEAGMREQCVLSEEQIRKKKIRKQQQESQSQSQSPVGPQGSSSSASGPGASPGGSEAGSQGSGEGEGVQLTAAQELMIQQLVAAQLQCNKRSFSDQPKVTPWPLGADPQSRDARQQRFAHFTELAIISVQEIVDFAKQVPGFLQLGREDQIALLKASTIEIMLLETARRYNHETECITFLKDFTYSKDDFHRAGLQVEFINPIFEFSRAMRRLGLDDAEYALLIAINIFSADRPNVQEPGRVEALQQPYVEALLSYTRIKRPQDQLRFPRMLMKLVSLRTLSSVHSEQVFALRLQDKKLPPLLSEIWDVHE",0.88,60.8,0.9,1.7,1.2,1.73,1.7,45.1,1.71,37.9,0.5,0.55,2.4,0.8,0.81,46.7,0.9,0.89
